Results on 67 molecules are retold here after ChEMBL document CHEMBL3507680, “University of Dundee, Gates Library screen for HepG2 cell viability”.

The structures appear in SMILES notation.

The data set in a line: Human HepG2 cell viability assay in 384 well format. The class given is toxicity, cell-based. The arrangement: dose 125 nL, time 70.5 hour; concentration not given beside the values. To be noted: HepG2 cells, read-out: Inhibition.

Turning to `CCOC(=O)[C@H]1[C@@H](O)C(=O)N(C)C12CCN(C(=O)C(CC)CC)CC2`, the cytotoxicity at 70.5 h is -3.26%. On to `CCOC(=O)[C@H]1[C@@H](O)C(=O)N(C)C12CCN(C(=O)CC1CCCC1)CC2`, for which the cytotoxicity at 70.5 h is -3.01%. As for `CCN1CC(CN2CCOCC2)Oc2ncccc2C1=O` (configuration not stated), the figure is 13.2%; as for `O=C1c2cccnc2OC(CN2CCOCC2)CN1Cc1cccs1` (configuration not stated), -4.39%; as for `CCN1Cc2cc3c(cc2NCCC1=O)OCO3`, 6.48%.

On to `COCCCN1CC2(CCCCN2C(=O)C2CCCCC2)CC1=O` (configuration not stated), for which the cytotoxicity at 70.5 h is -3.42%. As for `CC(=O)N1CCC2(CC1)C(=O)N(c1ccc(C)nc1)CCN2CC(C)C`, the figure is -4.45%. As for `COc1ncccc1CN1CC[C@H]2O[C@@H](c3nnc(C)o3)CC[C@H]21`, the figure is -6.07%.

Take `c1cncc(COCC2CNCc3nccn3C2)c1` (configuration not stated): the cytotoxicity at 70.5 h amounted to 3.07%. As for `CC(C)(CO)CNC(=O)c1ccnn1-c1ccc2ccccn12`, the figure is -2.1%. As for `COCCCN1CC2(CCCCN2C(C)=O)CC1=O` (configuration not stated), the figure is -7.86%. With `O=C(CCO)N1CCC2(CCc3ccc(-c4ccoc4)cc32)CC1`, the cytotoxicity at 70.5 h is -12.5%. As for `COc1ncccc1CN1CC[C@H]2O[C@H](c3nnc(C)o3)CC[C@H]21`, the figure is -11.5%; as for `CN(C)c1ccc2c(c1)CN(C(=O)c1cnccn1)C2c1cnco1` (configuration not stated), 22.8%.

Consider `CC1N(CC2CC2)C(=O)COC12CCN(C(=O)c1cccs1)CC2` (configuration not stated), for which the cytotoxicity at 70.5 h is -5.2%. Turning to `CN(C)c1ccc2c(c1)CN(C(=O)c1c[nH]cn1)C2c1cnco1` (configuration not stated), the cytotoxicity at 70.5 h was 29.3%. As for `CC1N(CC2CC2)C(=O)COC12CCN(C(=O)c1ccncc1)CC2` (configuration not stated), the figure is -1.87%.

Regarding `CN(C)C[C@H]1C[C@@H]2CN(C(=O)c3ccco3)C[C@@H]2O1`, the cytotoxicity at 70.5 h is -2.65%. As for `c1cnc(NCc2n[nH]c3c2CCN(Cc2ccncc2)C3)nc1`, the figure is -6.35%. As for `CCN1CC2(CC1=O)CN(C(=O)NC)CCN(S(C)(=O)=O)C2` (configuration not stated), the figure is -6.12%.

For `Cc1cnc(CNC(=O)C[C@@H]2COC[C@H]3CN(C4CCC4)C[C@@H]23)cn1`, the cytotoxicity at 70.5 h amounted to 25.6%. As for `CN(C)CCN1C[C@@H]2CN(C(=O)C3CC=CC3)C[C@@H]2C1=O`, the figure is -10.8%; as for `CN(C)CC(=O)N1Cc2cc(N(C)C)ccc2C1c1cnco1` (configuration not stated), -12.7%. As for `COCC(=O)N1CCC2(CC1)CCn1c(-c3cccc(OC)c3)cnc12`, the figure is 36.2%. As for `CC(C)NC(=O)N1CCC2(CC1)CCn1c(C3CC3)cnc12`, the figure is 51.2%; as for `CC(C)Nc1nc2c(c(NC3CC3)n1)CN(C(=O)Cc1ccsc1)CC2`, 3.26%; as for `Cc1cnc(N2CCC3(CC2)C(c2ccccc2)CC(=O)N3C)nc1` (configuration not stated), -10.2%. Regarding `CN(C)C(=O)N1CC2(CCOCC2)c2cc(NS(=O)(=O)C3CC3)ccc21`, the cytotoxicity at 70.5 h was found to be 11.5%. As for `O=C(Nc1cnccn1)[C@H]1COC[C@H]2CN(c3ncc(F)cn3)C[C@H]21`, the figure is -5.25%; as for `CNC(=O)N1CCC2(CC1)CN(C)c1ccc(F)cc12`, 2.16%.

As for `CC(C)Nc1nc2c(c(NC3CC3)n1)CN(C(=O)c1ccsc1)CC2`, the cytotoxicity at 70.5 h was -17.2%. As to `c1cnc(N2CC3(CCN(C4CCOC4)CC3)c3ccccc32)nc1` (configuration not stated), the cytotoxicity at 70.5 h is -6.16%. As for `COc1cccc(CNC(=O)c2nc3c(o2)CN(C(=O)N(C)C)C3)c1`, the figure is -8.42%; as for `Cc1ccc(CN2C[C@H]3C[C@H](C(=O)NCc4cccnc4)[C@@H](C2)O3)cc1`, 37.6%; as for `O=C(C1CC1)N1CCC2(CC1)CNCCO2`, 4.17%.

For the molecule `CC(C)N(C)C(=O)C1=NOC2(CCN(C(=O)c3cccn3C)C2)C1` (configuration not stated), the cytotoxicity at 70.5 h stood at 24.9%. As for `CC(C)N(C)C(=O)C1=NOC2(CCN(C(=O)c3ccnnc3)C2)C1` (configuration not stated), the figure is -1.5%; as for `CCOCC(=O)N1Cc2nccn2CC(CN(C)C)C1` (configuration not stated), 1.2%.

For `Cc1noc([C@@H]2C[C@H]3OCC[C@H]3N(S(=O)(=O)N(C)C)C2)n1`, the cytotoxicity at 70.5 h is -0.423%.

For `CNC(=O)N1Cc2cc(F)ccc2C2(CCN(C)CC2)C1`, the cytotoxicity at 70.5 h was -1.35%.

On to `CNC(=O)N1CCC2(CC1)CN(C)Cc1cc(F)ccc12`, for which the cytotoxicity at 70.5 h amounted to 2.33%. As for `N#Cc1cccc(N2CCCC3(C2)CN(c2ncccn2)CCO3)n1` (configuration not stated), the figure is -6.81%; as for `COCc1n[nH]c2c1CN(C(=O)c1ccncc1)C2`, -10.2%. As for `CC(=O)N1CCc2cc(C(=O)O)c(-c3ccsc3)nc2CC1`, the figure is -0.0308%; as for `Cc1nnc([C@@H]2C[C@H]3CN(C4CCC4)C[C@H]3O2)[nH]1`, -0.989%. As for `Cc1nnc([C@@H]2C[C@H]3CN(C(=O)c4c(C)noc4C)C[C@H]3O2)[nH]1`, the figure is -11.6%; as for `Cc1cccc(CN2CCc3[nH]nc(C(=O)N4CCNC(=O)C4)c3C2)n1`, -10.5%. Consider `Cc1ccc(N2C[C@@H]3CN(C(=O)c4ccccc4)CCO[C@@H]3C2)nn1`, for which the cytotoxicity at 70.5 h came out at 23.3%. As for `CN(C)CCN1C[C@@H]2CN(C(=O)C3CCOC3)C[C@@H]2C1=O` (some centres not stated), the figure is 23.4%; as for `CC(C)N1CCOCC2(CCCN(C(=O)c3cncn3C)C2)C1` (configuration not stated), -8.05%; as for `O=C1CC[C@H]2[C@H](CCN2c2ccccn2)N1CC1CCOCC1`, -9.84%. As to `O[C@@H]1CCN(CC2CCOC2)[C@H]1Cc1ccccc1` (some centres not stated), the cytotoxicity at 70.5 h is -3.68%. As for `CN(C)C(=O)COC[C@@]12CCC[C@@H]1CN(C1CCCC1)C2`, the figure is -1.63%. As for `CC(C)n1nc(Cn2cccc2)c2c1CN(Cc1ccoc1)C2`, the figure is -4.83%. As for `Cc1ccc(N2CC[C@H]3[C@@H]2CCC(=O)N3CCN2CCOCC2)nn1`, the figure is -6.53%; as for `CN(C)CCOC1CC2(CCN(c3cnccn3)CC2)c2ccccc21` (configuration not stated), 31.5%; as for `Cc1nc(COCc2nc3c(o2)CN(C(=O)c2ccc[nH]2)C3)cs1`, -3.29%. `c1ccc(OCc2nnn3c2CN(c2ncccn2)CCC3)nc1`: the cytotoxicity at 70.5 h was 6.14%. As for `CCN(CC)c1ccc2ccc(C(=O)N(CCOC)CCOC)cn12`, the figure is -0.14%; as for `CN(C)CC1CN(C(=O)Cc2ccccc2)Cc2nccn2C1` (configuration not stated), 24%.

Take `O=C(C[C@@H]1COC[C@H]2CN(C(=O)c3cccnc3)C[C@@H]12)N1CCOCC1`: the cytotoxicity at 70.5 h is -4.26%. Regarding `O=C1COC2(CCN(Cc3cccs3)CC2)CN1c1cncnc1`, the cytotoxicity at 70.5 h was found to be 0.999%. As for `Cc1ccc(N2CCCC3(COCCN(c4ccccn4)C3)C2)nn1` (configuration not stated), the figure is -8.01%; as for `CN(Cc1ccco1)Cc1cnc2n1CCN(c1ccccn1)CC2`, -2.44%; as for `CN1CCOCC2(CCN(Cc3ccc[nH]3)CC2)C1`, 30%. As for `CC(C)N(C)[C@@H]1CCN(Cc2nccs2)[C@H]1Cc1ccncc1`, the figure is -8.84%.

With `CN(C)CCN1CCOCC2(CCN(Cc3ccc[nH]3)CC2)C1`, the cytotoxicity at 70.5 h was found to be 0.665%.
